Oligonucleotides are written 5' to 3', each unit as a sugar letter and its base; * is a phosphorothioate linkage, no mark a phosphodiester; rarer units and linkages stand in square brackets, end groups in braces. Plain capitals give the bases only. r = 2'-OH (RNA)
Legend:
Flt3L-DC = Flt3L-DC activation assay (cytokines in supernatant by sandwich ELISA); assay type: cell-based, mouse
Procedure: Flt3L-DC were generated from bone marrow cell suspensions in RPMI 1640 medium containing 10% fetal calf serum, 2 mM glutamine, 100 units/ml penicillin, 100 μg/ml streptomycin, 50 μM 2-mercaptoethanol and 50 ng/ml murine Flt3L (R&D systems) and were used at day 10 or 11 of cultures.
For stimulation with oligonucleotides, 2×10^5 Flt3L-DC were seeded in triplicate in 96-well-plates. Oligonucleotides were added and cells were cultured overnight in a final volume of 200 μl. Controls contained medium alone, 0.5 μg/ml CpG 1668, 100 mM loxoribine or 1 μM R848.
For stimulation with oligonucleotides other than CpG 1668, different doses of each test oligonucleotides were diluted in 150 mM NaCl solution and mixed with an equal volume of 150 mM NaCl solution+/−polytheylenimine (PEI; 3 μl/ml PEI were used irrespective of the RNA dose). After 15 min incubation at room temperature, oligonucleotide/PEI complexes were added to cells. Supernatants were collected after 18-20 hr of culture and levels of IFNα, IL-6 and IL-12 p40 were determined by sandwich ELISA.

[1] = system: human plasmacytoid DC (pDC); experiment: Human pDC activation assay (IFNα and IL-6 in supernatant by sandwich ELISA); assay type: cell-based; conditions: for IFN-α production by human pDC: different doses of polyUs 21-mer, polyAs 21-mer 1 μM, overnight culture
Procedure: Human pDC activation assays. R848 and RNA9.2DR complexed to LyoVec were from Invivogen. RNA oligonucleotides were purchased from Sigma Proligo. Human PMBCs were purified from normal human peripheral blood by Ficoll-Hypaque centrifugation. BDCA4^+ plasmacytoid DC were purified from total PBMC by positive selection using CD304^+ Microbeads and MiniMacs from MiltenyiBiotec. Oligonucleotides/PEI complexes, prepared as described above, were added to 1-2×10^5 pDC seeded in duplicate in 96-well-plates. Cells were cultured overnight in a final volume of 200 μl, supernatants were collected after 18-20 hr of culture and levels of IFNα and IL-6 were determined by sandwich ELISA.

[2] = oligonucleotide/PEI complexes, C57BL/6 Flt3L-DC, overnight culture, result in words
[3] = polyUs 21-mer 10 μM as PEI complexes, RNA9.2DR 1 μM as LyoVec complexes, R848 1 μM

polyUs-21: polyU RNA 21-mer, phosphorothioate bonds, SEQ ID NO 5 (rU*rU*rU*rU*rU*rU*rU*rU*rU*rU*rU*rU*rU*rU*rU*rU*rU*rU*rU*rU*rU)
potency in inducing IFNα compared with RNA40 (Flt3L-DC; PEI complexes): much more potent than RNA40
IFNα levels, RNA oligonucleotide polyUs-21 compared with DNA oligonucleotide polydUs-21 (Flt3L-DC; PEI complexes, all doses tested): induced higher levels of IFNα at all doses tested
IFNα induction by Flt3L-DC (Flt3L-DC; free oligonucleotide given to culture without PEI): induced IFNα
fold more potent in inducing IFNα by Flt3L-DC than R848 and loxoribine (Flt3L-DC; ligands at concentrations of maximum cytokine induction: polyUs-21 1 μg/ml + PEI, CpG 1668 0.5 μg/ml, loxoribine 100 mM, R848 10 μg/ml): approximately 30 times
optimal dose of ssRNA for IFNα induction (Flt3L-DC; mouse Flt3L, PEI complexes): 3 µg/mL
IFNα induction by Flt3L-DC (Flt3L-DC; [2]): induced IFNα by Flt3L-DC in a dose dependent manner
ability to stimulate TLR7 (Flt3L-DC; summary statement on oligonucleotides of Table 1): capable of stimulating TLR7
IFN-α production by human pDC ([1]; PEI complexes): induced IFN-α production by human pDC in a dose-dependent manner
optimal dose of ssRNA for IFN-α induction ([1]; human pDC, PEI complexes): 3 µg/mL
IFNα production by human pDC, comparison of TLR7/8 agonists [1, 3]: induced equivalent levels of IFNα production by human pDC
IL-6 induction by human pDC [1, 3]: failed to induce IL-6 secretion by pDC

polyAs-21: polyA RNA 21-mer, phosphorothioate bonds, SEQ ID NO 26 (rA*rA*rA*rA*rA*rA*rA*rA*rA*rA*rA*rA*rA*rA*rA*rA*rA*rA*rA*rA*rA)
IFNα induction by Flt3L-DC (Flt3L-DC; [2]): failed to induce IFNα
IFN-α production by human pDC ([1]; PEI complexes): failed to induce IFNα

Source: US20090169472A1, “METHODS AND COMPOSITIONS FOR TREATING IMMUNE DISORDERS” (CANCER RESEARCH TECHNOLOGY LTD., priority 2005, published 2009)
